1 molecule from patent publication US11207365B2, “Combined preparations of urinary acidifiers and crystallization inhibitors and application thereof for the treatment or prevention of phosphatic or calcium phosphate-induced renal lithiasis” (UNIVERSITAT DE LES ILLES BALEARS, priority 2014, dated 2021) can be followed below.

The assay in a line: Induction time for the crystallization of calcium phosphate in artificial urine. Particulars: for induction time t: 15 mM phosphate and 3 mM calcium solution in artificial urine (no magnesium); for delay in the induction time: 1 μM phytate versus solution without inhibitor. As to the method:
From a 15 mM phosphate ion and 3 mM calcium ion solution in artificial urine, the induction times for the crystallization of calcium phosphate have been calculated at different pH and phytate concentration. The artificial urine had no magnesium since it is shown that the magnesium ion is a calcium phosphate crystallization inhibitor. […] Thus, while at pH 6.75, the calcium phosphate solution (without inhibitor) takes 1 minute to crystallize, with 1 μM phytate it takes 2 minutes (the delay in the induction time at this pH value is 1 minute, for 1 μM phytate). However, when the pH decreases to 6.60, the calcium phosphate solution (without inhibitor) takes 6 minutes to crystallize, while with 1 μM phytate it takes 33 minutes (the delay in the induction time at this pH value is 27 minutes, for 1 μM phytate). Thus, for the same amount of inhibitor there is a significant increase of the crystallization time when the value of the pH of the solution decreases.

For `O=P(O)(O)O[C@H]1[C@H](OP(=O)(O)O)[C@@H](OP(=O)(O)O)[C@H](OP(=O)(O)O)[C@@H](OP(=O)(O)O)[C@H]1OP(=O)(O)O` [phytate, myo-inositol-hexaphosphate], the “induction time t” value is listed as 12 min (0.5 μM phytate, pH = 6.60); 4 min (0.5 μM phytate, pH = 6.65); 1 min (0.5 μM phytate, pH = 6.75); 33 min (1.0 μM phytate, pH = 6.60); 6 min (1.0 μM phytate, pH = 6.65); 2 min (1.0 μM phytate, pH = 6.75). Moreover, the “delay in the induction time” value was 27 min (pH 6.60) and 1 min (pH 6.75).
